Laboratory results: patent US20070154405A1, “AEROSOL APPARATUS CONTAINING A COMPOSITION FOR APPLYING SIMULTANEOUSLY SEVERAL TOPICAL STIMULI” (priority 2005, published 2007)
Where “and” joins values, the source holds several entries; their conditions need not be identical. Equal values may be shown once.

Experiments:
Atopic Dermatitis = test: Clinical Study 2: randomized single blind comparison of N1 and Hydrocortisone 1% in atopic dermatitis, SASSAD severity score; type: in vivo, human
Description: The patients taking part in the clinical studies were given free kits of the aerosol apparatus of the present invention and a set of instructions detailing method of use as follows: 1) Remove clothing of the area of application. 2) If the face needs to be treated, the eyes should be closed or masked (for babies or small children) 3) Hold the apparatus at a distance of 10 cm-20 cm approximately. 4) Press the apparatus's actuator to release the water-based particles. 5) Apply for a few seconds or as needed then leave the treated areas to dry untouched. Repeat as many times as needed until the symptoms ease. 6) In chronic cases and in order to speed the healing process, apply a daily regimen of four times per day, once before bedtime until symptoms reduce or disappear.
125 Patients took part in a comparative, randomized, single (observer) blind, controlled clinical study.
The scoring system used to evaluate the results of both groups is “Six area, six sign atopic dermatitis (SASSAD) severity score [Jones J B. Six area, six sign atopic dermatitis (SASSAD) severity score: A simple system for monitoring disease activity in atopic dermatitis. Br J Dermatol. 1996; 135 (Suppl 48): 25-30] […] The signs are: Dryness, lichenification, cracking, erythema, exudation and excoriation. the six areas of the body are head, neck, trunk, arms, hands, legs and feet. The severity of the lesions are assessed as 0, 1, 2 and 3 for no lesion, mild, moderate and severe lesions respectively for each sign in each body area resulting in a score of maximum 18 for each sign. The six signs were evaluated objectively by the investigating physicians. Itching being a subjective symptom was evaluated by the patient.
The atopic dermatitis diagnosis was based on [Hanifin J. M., Rajka G. Diagnostic Features of Atopic Dermatitis, Acta Derma (Stock) Suppl. 92:44-47, 1980].

[1] = test system: Itching (Atopic Dermatitis); test: Clinical Study 2: itching by patient VAS in atopic dermatitis patients; type: in vivo, human
Description: 125 Patients took part in a comparative, randomized, single (observer) blind, controlled clinical study. […] The age difference for both groups of males and females was statistically insignificant t=0.551, P=0.582 and t=1.307, P=0.194 respectively. […] The similar distribution allowed for a matching analysis with no statistical difference where Chi-square test=0.001, P=0.976. Due to the subjective nature of this symptom, all the patients were given VAS (Visual analogue scale graded 0=no itch to 10=severe itch) to complete at home twice daily, once in the morning and once in the evening, on the fifth, sixth and seventh day, after allowing for a washout period of four days. Table IX clarify the mean VAS score in both groups after treatment with their respective intervention. The N1 group has experienced a significant decline in their VAS score throughout the 5th, 6th and 7th days where paired t test for the decline in the 5th day=6.96, P=0.001 and for the 6th day=6.74, P=0.001 and for the 7th day=2.76, p=0.006.

[2] = Base score, listed as hydrocortisone
[3] = Week 1, listed as hydrocortisone

**Q.** How did the “Mean Cracking score” value (Atopic Dermatitis; Base score) turn out when `C[C@]12CCC(=O)C=C1CC[C@@H]1[C@@H]2[C@@H](O)C[C@@]2(C)[C@H]1CC[C@]2(O)C(=O)CO` [Hydrocortisone] was run?
**A.** 1.17

**Q.** And the “Mean Dryness score” value (Atopic Dermatitis; Base score)?
**A.** 4.32

**Q.** And the “Mean Erythema score” value (Atopic Dermatitis; Base score)?
**A.** 3.6

**Q.** What about the “Mean Excoriation score” value (Atopic Dermatitis; Base score) of the same molecule?
**A.** 2.7

**Q.** And the “Mean Exudation score” value (Atopic Dermatitis; Base score)?
**A.** 3.18

**Q.** And the “Mean Lichenification score” value (Atopic Dermatitis; Base score)?
**A.** 2.44

**Q.** And the “Mean Erythema score” value (Atopic Dermatitis; [2])?
**A.** 3.6±2.5

**Q.** What about the “Mean Lichenification score” value (Atopic Dermatitis; [2]) of the same molecule?
**A.** 2.44±1.7

**Q.** And the “Mean Dryness score” value (Atopic Dermatitis; Week 1)?
**A.** 2.9

**Q.** What about the “Mean Erythema score” value (Atopic Dermatitis; Week 1) of the same molecule?
**A.** 2.9

**Q.** What about the “Mean Excoriation score” value (Atopic Dermatitis; Week 1) of the same molecule?
**A.** 1.97

**Q.** And the “Mean Exudation score” value (Atopic Dermatitis; Week 1)?
**A.** 2.5

**Q.** And the “Mean Lichenification score” value (Atopic Dermatitis; Week 1)?
**A.** 1.55

**Q.** What about the “Mean Exudation score” value (Atopic Dermatitis; [3]) of the same molecule?
**A.** 2.5±2.4

**Q.** What about the “Mean Lichenification score” value (Atopic Dermatitis; [3]) of the same molecule?
**A.** 1.55±1.9

**Q.** And the “Mean Dryness score” value (Atopic Dermatitis; Week 2)?
**A.** 2.13

**Q.** And the “Mean Erythema score” value (Atopic Dermatitis; Week 2)?
**A.** 1.8

**Q.** And the “Mean Excoriation score” value (Atopic Dermatitis; Week 2)?
**A.** 1.6

**Q.** And the “Mean Lichenification score” value (Atopic Dermatitis; Week 2)?
**A.** .82

**Q.** And the “Mean Lichenification score” value (Atopic Dermatitis; Week 2, listed as hydrocortisone)?
**A.** 0.82±1.3

**Q.** And the “group cleared of atopic dermatitis (SASSAD score of 0 or 1)” value (Atopic Dermatitis; after Week One)?
**A.** 14%

**Q.** And the “group cleared of Atopic dermatitis” value (Atopic Dermatitis; after two weeks treatment, total)?
**A.** 11%

**Q.** What about the “patients cleared from atopic dermatitis (SASSAD score=0)” value (Atopic Dermatitis; after week one) of the same molecule?
**A.** 9 patients

**Q.** What about the “patients cleared from atopic dermatitis (SASSAD score=0), percent of group” value (Atopic Dermatitis; after week one) of the same molecule?
**A.** 3.81%

**Q.** And the “Mean SASSAD score” value (Atopic Dermatitis; at baseline, before treatment)?
**A.** 17.51±7.37 and 17.52 and 17.5

**Q.** And the “Mean SASSAD score” value (Atopic Dermatitis; at baseline, before treatment, listed as hydrocortisone)?
**A.** 17.52±7.37

**Q.** And the “group cleared of atopic dermatitis (SASSAD score of 0 or 1)” value (Atopic Dermatitis; at the end of Week Two)?
**A.** 6.3%

**Q.** And the “Mean SASSAD score” value (Atopic Dermatitis; end of week one)?
**A.** 12.82±8.34 and 12.52±8.34 and 12.82 and 12.5

**Q.** What about the “Mean SASSAD score” value (Atopic Dermatitis; end of week two, patients who continued treatment) of the same molecule?
**A.** 8.4±6 and 8.4

**Q.** And the “Mean SASSAD score” value (Atopic Dermatitis; end of week two, patients who continued treatment, listed as hydrocortisone)?
**A.** 8.4±6

**Q.** And the “itch free duration, mean” value ([1]; 3 day self-monitoring period)?
**A.** 1.76 ± 1.21 h

**Q.** What about the “Mean itch VAS (0=no itch to 10=severe itch)” value ([1]; Day 5 Evening) of the same molecule?
**A.** 7.69

**Q.** And the “Mean itch VAS (0=no itch to 10=severe itch)” value ([1]; Day 5 Morning)?
**A.** 8.01

**Q.** And the “Mean itch VAS (0=no itch to 10=severe itch)” value ([1]; Day 5 Morning, listed as hydrocortisone)?
**A.** 8.01±1.65

**Q.** And the “Mean itch VAS (0=no itch to 10=severe itch)” value ([1]; Day 6 Evening)?
**A.** 7.06

**Q.** What about the “Mean itch VAS (0=no itch to 10=severe itch)” value ([1]; Day 6 Morning) of the same molecule?
**A.** 7.17

**Q.** And the “Mean itch VAS (0=no itch to 10=severe itch)” value ([1]; Day 7 Evening)?
**A.** 6.58

**Q.** And the “Mean itch VAS (0=no itch to 10=severe itch)” value ([1]; Day 7 Evening, listed as hydrocortisone)?
**A.** 6.58±1.97

**Q.** And the “Mean itch VAS (0=no itch to 10=severe itch)” value ([1]; Day 7 Morning)?
**A.** 6.63

**Q.** And the “Mean itch VAS (0=no itch to 10=severe itch)” value ([1]; Day 7 Morning, listed as hydrocortisone)?
**A.** 6.63±1.93
